Where “and” joins values, the source holds several entries; their conditions need not be identical. Identical values can stand only once.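 Briefly, cells in 96-well plates were exposed to five compound concentrations for 48 h, and endpoints were estimated by linear interpolation. GI50: concentration for 50% inhibition of growth. TGI denotes the concentration required for complete inhibition of growth.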
System: MDA-MB-468 breast
Assay: NCI anticancer screen, dose series, 48 h

SMILES	GI50	TGI
CCN1CCN(S(=O)(=O)c2oc(-c3ccc(Cl)cc3)nc2C#N)CC1	2.21 µM	5.16 µM
COC(=O)Nc1nc2ccc(Oc3ccc(NC(=O)Nc4cccc(Cl)c4)cc3)cc2[nH]1	0.269 µM	2.2 µM
O=C(Cn1ccnc1[N+](=O)[O-])NCC(F)(F)C(F)(F)F	> 100 µM	> 100 µM
COc1cccc2c1c1nc3cc(C)c(C)cc3nc1n2CCN(C)C	1.54 µM	4.14 µM
C=C[C@]1(C)C=C2C(=O)[C@@]3(O)OC(=O)[C@@]4(CCCC(C)(C)[C@H]34)[C@@]2(O)CC1	0.414 µM	2 µM
CCNc1nc(N2CC(=O)Nc3cc(OC)ccc32)c2ccccc2n1	0.00026 µM	
CCCCCCCCCCCCCCCCOCCCOP(=O)(O)C1CCCN(O)C1=O (stereo unspecified)	2.57 µM	9.93 µM
Cc1ccc(NC(=O)c2ccnc(N3CCCC3)c2)cc1-c1ccc(C(=O)NCC2CC2)cc1	> 25 µM	> 25 µM
C/C(=C\c1ccn(-c2ccc(N)cc2)n1)[C@@H]1C[C@@H]2O[C@]2(C)CCC[C@H](C)[C@H](O)[C@@H](C)C(=O)C(C)(C)[C@@H](O)CC(=O)O1	0.0391 µM	1.19 µM
Cc1ccc(S(=O)(=O)n2cc(C(=O)C(=O)Nc3ccncc3)c3ccccc32)cc1	1.1 µM	9.53 µM
CC[C@H](C)C(=O)O[C@H]1CCC=C2C=C[C@H](C)C(CCC3C[C@@H](O)CC(=O)O3)[C@H]21 (stereo partly specified)	5.85 µM	30.8 µM
Cc1ccc(C(=O)NC2CCCCC2)cc1-c1ccc(C(=O)NCC2CC2)cc1	> 23.6 µM	> 25 µM
COC(=O)c1c2c(c(C)[n+]([O-])c1C)C(=O)C(NCc1ccc(F)c(F)c1)=CC2=O	1.16 µM	3.07 µM
COc1cc2c3c(n(C4CCNCC4)c(=O)c2cc1OC)-c1cc2c(cc1C3=O)OCO2	0.455 µM	1.85 µM
CCCCCc1ccc(S(=O)(=O)Nc2cc(-c3csc(NC(=O)CN4CCN(C)CC4)n3)ccc2N2CCN(C)CC2)cc1	0.901 µM	2.02 µM
CC/C(=C(\CC)c1ccc(OCCN(CC)CC)cc1)c1ccc(OCCN(CC)CC)cc1	1.59 µM	3.64 µM
COc1ccc(Nc2ccnc(NCCCNc3ccnc4cc(Cl)ccc34)n2)cc1	0.871 µM	2.42 µM
CCOC(=O)c1c(Cl)c2c(n1Cc1cc(OC)cc(OC)c1)-c1oncc1CCC2	0.526 µM	> 100 µM
Cc1cccc(N=C2c3cc([N+](=O)[O-])ccc3-c3c2cc([N+](=O)[O-])cc3[N+](=O)[O-])c1	1.67 µM	3.32 µM
CN(C)CC1CCn2c(c(C3=C(c4cn(C)c5ccccc45)C(=O)NC3=O)c3ccccc32)C1 (stereo unspecified)	3.51 µM	7.57 µM

SMILES	GI50	TGI
COc1cnc2c(c1)C(=O)c1c-2n(CCCN2CCN(C)CC2)c(=O)c2cc(Cl)ccc12	1.19 µM	14.8 µM
COc1ccc(-c2nc(-c3nc4cc(C)c(C)cc4[nH]3)cc3c2[nH]c2ccccc23)cc1	1.99 µM	4.78 µM
COC(=O)[C@@H](C)C[C@H](Cc1ccccc1)NC(=O)c1csc([C@@H](C[C@H](C(C)C)N(C)C(=O)[C@@H](NC(=O)[C@H]2CCCCN2C)C(C)C)OC(C)=O)n1		> 25 µM
C#C[C@@]1(O)[C@@H](CO)O[C@@H](n2cc(F)c3c(N)ncnc32)[C@@H]1O	0.301 µM	1.53 µM
COc1cc(C(=O)n2nc(N3CCN(C)CC3)c3cc(N)ccc32)cc(OC)c1OC	2.97 µM	9.38 µM
O=C(O)CCC1CCC(c2cc(F)ccc2F)(S(=O)(=O)c2ccc(Cl)cc2)CC1 (stereo unspecified)	13.1 µM and 45.3 µM	52.5 µM and > 100 µM
CO[C@H](C(=O)N[C@@H](CCCCNC(=O)OCc1ccccc1)C(=O)OC(C)(C)C)[C@@H]1Cc2cc3cc(OC4CC(OC5CC(O)C(O)C(C)O5)C(O)C(C)O4)c(C)c(O)c3c(O)c2C(=O)[C@H]1OC1CC(OC2CC(OC3CC(C)(O)C(O)C(C)O3)C(O)C(C)O2)C(O)C(C)O1 (stereo partly specified)	0.764 µM	2.92 µM
Clc1ccc(CO/N=C(\Cn2ccnc2)c2ccc(Cl)cc2Cl)c(Cl)c1	1.59 µM	3.06 µM
COc1ccc(F)cc1C(=O)c1cnc(NC2CCN(S(C)(=O)=O)CC2)nc1N	3.95 µM	9.87 µM
O=C1/C(=C/C(Cl)=C/c2ccccc2)SC(=S)N1CCc1ccc(O)cc1	1.89 µM	6.04 µM
CN1CCN(Cc2ccc(NC(=O)c3cncc(C#Cc4c(N)ncc5cc(F)ccc45)c3)cc2C(F)(F)F)CC1	6.3 µM	15.4 µM
CN1CCN(Cc2ccc(Nc3ncc(Cl)c(Nc4ccccc4S(=O)(=O)N(C)C)n3)cc2)CC1	0.0525 µM	0.268 µM
Cc1ccc2sc3c(NCCCNCCO)nc4ccccc4c3c(=O)c2c1	1.54 µM	3.16 µM
NC(=O)Oc1cc(OC(N)=O)cc(N(CCCl)CCCl)c1	1.71 µM	13 µM
CO[C@H]1CC[C@@]2(C)C(=CC[C@H]3[C@@H]4C[C@H](O)C[C@@]4(C)CC[C@@H]32)C1	2.41 µM	9.07 µM
O=C(Nc1ccc(Br)c(Cl)c1)c1cc(F)ccc1O	0.942 µM	3.35 µM
[N-]=[N+]=CC(=O)OCC(N)C(=O)O (stereo unspecified)	1.21 µM	11.1 µM
O=C1/C(=C/c2ccc(Cl)cc2)CN(C(=O)C(Cl)Cl)C/C1=C\c1ccc(Cl)cc1	0.182 µM	0.376 µM
Cn1cc(C2=C(c3c4n(c5ccccc35)CCC(CN)CC4)C(=O)NC2=O)c2ccccc21 (stereo unspecified)	3.72 µM	7.51 µM
